Patent US12049466B2, “Fused bicyclic compounds useful as ubiquitin-specific peptidase 30 inhibitors” (FORMA Therapeutics, Inc., priority 2018, dated 2024)

Target: T1, human recombinant USP30 (Homo sapiens, UniProt Q70CQ3)
T1 construct: purchased Boston Biochem E-582
T1 sequence (Q70CQ3 1-517): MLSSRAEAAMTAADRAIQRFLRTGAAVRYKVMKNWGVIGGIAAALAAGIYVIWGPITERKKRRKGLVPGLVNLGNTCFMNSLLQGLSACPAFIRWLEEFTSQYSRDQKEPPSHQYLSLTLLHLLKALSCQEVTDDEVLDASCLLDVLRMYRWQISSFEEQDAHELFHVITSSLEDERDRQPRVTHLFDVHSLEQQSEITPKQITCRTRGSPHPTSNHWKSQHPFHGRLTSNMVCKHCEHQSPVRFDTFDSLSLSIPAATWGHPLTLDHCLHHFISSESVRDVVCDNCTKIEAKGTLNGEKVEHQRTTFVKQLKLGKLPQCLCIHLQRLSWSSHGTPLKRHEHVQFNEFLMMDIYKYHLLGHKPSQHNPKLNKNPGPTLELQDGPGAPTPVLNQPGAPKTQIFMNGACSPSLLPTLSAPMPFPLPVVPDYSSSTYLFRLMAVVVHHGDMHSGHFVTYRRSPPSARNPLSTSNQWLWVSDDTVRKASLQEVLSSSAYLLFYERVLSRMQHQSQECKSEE
Test: Ubiquitin-Rhodamine 110 Assay for USP30 Activity (USP30 biochemical assay)
Details: IC50 ranges; 0.4 nM enzyme, 25 nM Ub-Rh110, 30 min preincubation, test concentration 25 μM to 1.3 nM
Procedure: Assay Example A: Description of Biochemical Assay: Ubiquitin-Rhodamine 110 Assay for USP30 Activity
The assay was performed in a final volume of 6 μL in assay buffer containing 20 mM Tris-HCl (pH 8.0, (1M Tris-HCl, pH 8.0 solution; Corning 46-031-CM)), 1 mM GSH (L-glutathione reduced, Sigma-Aldrich, G4251-100G), 0.03% BGG ([…], Sigma, G7516-25G), and 0.01% Triton X-100 (Sigma, T9284-10L). Nanoliter quantities of 10-point, 3-fold serial dilution in DMSO were pre-dispensed into 1536 assay plates (Corning, #3724BC) for a final test concentration of 25 μM to 1.3 nM, top to lowest dose, respectively. Concentration and incubation times were optimized for the maximal signal-to-background while maintaining initial velocity conditions at a fixed substrate concentration (<<Km). The final concentration of enzyme (human recombinant USP30, Boston Biochem, cat. #E-582) in the assay was 0.4 nM. Final substrate (Ub-R^h110; Ubiquitin-Rhodamine 110, UbiQ-126) concentration was 25 nM. 3 μL of 2× enzyme was added to assay plates (pre-stamped with compound), preincubated for 30 minutes and then treated with 3 μL of 2× substrate. Plates were read for fluorescence on the Envision (Perkin Elmer) or PheraSTAR (BMG) (excitation at 485 nm and emission at 535 nm) 5 times over the course of 11 minutes and the slope of this kinetic read used to normalize the raw data.
For all assay formats, data were reported as percent inhibition compared with control wells based on the following equation: % inh=1−((FLU−AveLow)/(AveHigh−AveLow)) where FLU=measured Fluorescence, AveLow=average Fluorescence of no enzyme control (n=32), and AveHigh=average Fluorescence of DMSO control (n=32). IC50 values were determined by curve fitting of the standard 4 parameter logistic fitting algorithm included in the Activity Base software package: IDBS XE Designer Model205. Data are fitted using the Levenburg Marquardt algorithm.

Compound	IC50
N#CN1CC[C@@H]2CN(c3ncc(C4CCCCC4)s3)C(=O)[C@@H]2C1 (single isomer, unassigned) [5-1S,S]	1 to 10 µM
N#CN1CCN2CCN(c3ncc(-c4ccccc4Oc4ccccc4)s3)C(=O)C2C1 (stereo in doubt) [Compound 1-113S, (S)-9-oxo-8-(5-(2-phenoxyphenyl)thiazol-2-yl)octahydro-2H-pyrazino[1,2-a]pyrazine-2-carbonitrile]	< 0.1 µM
CC(C)(C)c1sc(N2CCN3CCN(C#N)C[C@H]3C2=O)nc1Cl (single isomer, unassigned) [Compound 1-2S]	< 0.1 µM
N#CN1CCN2CCN(c3ncc(-c4cccc(Cl)c4)cn3)C(=O)[C@@H]2C1 (single isomer, unassigned) [Compound 1-5S]	1 to 10 µM
N#Cc1cccc(-c2cnc(N3CCN4CCN(C#N)C[C@@H]4C3=O)s2)c1 (single isomer, unassigned) [Compound 1-6R]	< 0.1 µM
N#CN1CC(=O)N2CCN(c3ncc(C4CCCCC4)s3)C[C@H]2C1 (single isomer, unassigned) [Compound 3-1R]	< 0.1 µM
C[C@@]12CN(C#N)CCN1CCN(c1ncc(C3CCCCC3)s1)C2=O (single isomer, unassigned) [Compound 1-117S]	1 to 10 µM
N#CN1CC[C@H]2CCN(c3ncc(C4CCCCC4)s3)C(=O)[C@H]2C1 (single isomer, unassigned) [1-12S,R]	1 to 10 µM
N#CN1CC[C@@H]2CCN(c3ncc(C4CCCCC4)s3)C(=O)[C@H]2C1 (single isomer, unassigned) [1-12R,R]	0.1 to 1 µM
N#CN1CCN2CCN(c3ncc(-c4cccc(CN5CCC5)c4)s3)C(=O)[C@H]2C1 (single isomer, unassigned) [Compound 1-115R]	1 to 10 µM
N#Cc1cccc(-c2cnc(N3C[C@H]4CN(C#N)CC[C@H]4C3)nc2)c1 (single isomer, unassigned) [5-2R,R]	> 25 µM
N#Cc1cccc(-c2cnc(N3C[C@H]4CCN(C#N)C[C@H]4C3)nc2)c1 (single isomer, unassigned) [5-2S,S]	10 to 25 µM
N#CN1CCN2CCN(c3ncc(N4CCCC[C@@H]4Cc4ccccc4)s3)C(=O)[C@@H]2C1 (single isomer, unassigned) [1-118S,R]	0.1 to 1 µM
CC(C)(C)c1sc(N2CCN3CCN(C#N)C[C@]3(F)C2=O)nc1Cl (single isomer, unassigned) [Compound 1-116S]	1 to 10 µM
N#CN1CCN2CCN(c3cc(-c4ccccc4Oc4ccccc4)[nH]n3)C(=O)[C@H]2C1 (single isomer, unassigned) [Compound 1-114R]	0.1 to 1 µM
CC(C)(C)c1sc(N2CCN3CCN(C#N)C[C@@H]3C2=O)nc1Cl (single isomer, unassigned) [Compound 1-2R]	< 0.1 µM
CC(C)(C)c1sc(N2CC(=O)N3CCN(C#N)C[C@H]3C2=O)nc1Cl (single isomer, unassigned) [Compound 6-1S]	< 0.1 µM
N#CN1CCN2CCN(c3ncc(-c4cccc(Cl)c4)cn3)C(=O)[C@H]2C1 (single isomer, unassigned) [Compound 1-5R]	1 to 10 µM
N#CN1CC[C@H]2CCN(c3ncc(C4CCCCC4)s3)C(=O)[C@@H]2C1 (single isomer, unassigned) [1-12S,S]	1 to 10 µM
N#CN1CCN2CCN(c3ncc(C4CCCCC4)s3)C(=O)[C@@H]2C1 (single isomer, unassigned) [Compound 1-1S]	0.1 to 1 µM
N#Cc1cccc(-c2cnc(N3CCN4CCN(C#N)C[C@H]4C3=O)nc2)c1 (single isomer, unassigned) [Compound 1-4S]	1 to 10 µM
CC(C)(C)c1sc(N2CC(=O)N3CCN(C#N)C[C@@H]3C2=O)nc1Cl (single isomer, unassigned) [Compound 6-1R]	< 0.1 µM
N#CN1CCN2CCN(c3ncc(-c4cccc(Cl)c4)s3)C(=O)[C@@H]2C1 (single isomer, unassigned) [Compound 1-7S]	< 0.1 µM

Compound	IC50
CC(C)(C)c1cnc(N2CCN3CCN(C#N)C[C@]3(C)C2=O)s1 (single isomer, unassigned) [Compound 1-15R]	1 to 10 µM
N#CN1CC[C@@H]2CCN(c3ncc(C4CCCCC4)s3)C[C@@H]2C1 (single isomer, unassigned) [4-1R,S]	1 to 10 µM
N#CN1CC[C@H]2CCN(c3ncc(C4CCCCC4)s3)C[C@H]2C1 (single isomer, unassigned) [4-1S,R]	1 to 10 µM
N#CN1CCN2CCN(c3nc(Cl)c(C4CCCCC4)s3)C(=O)[C@H]2C1 (single isomer, unassigned) [Compound 1-3R]	< 0.1 µM
N#CN1CCN2CCN(c3cc(-c4cccc(Cl)c4)on3)C(=O)[C@H]2C1 (single isomer, unassigned) [Compound 1-11R]	> 25 µM
N#CN1CCN2CCN(c3ncc(-c4ccccc4)s3)C(=O)[C@@H]2C1 (single isomer, unassigned) [Compound 1-14S]	0.1 to 1 µM
CC(C)(C)c1sc(N2CCN3CCN(C#N)C[C@@]3(F)C2=O)nc1Cl (single isomer, unassigned) [Compound 1-116R]	1 to 10 µM
C[C@]12CN(C#N)CCN1CCN(c1ncc(C3CCCCC3)s1)C2=O (single isomer, unassigned) [Compound 1-117R]	< 0.1 µM
N#CN1CCN2CCN(c3ncc(-c4ccccc4Oc4ccccc4)s3)C(=O)C2C1 (stereo in doubt) [Compound 1-113R, (R)-9-oxo-8-(5-(2-phenoxyphenyl)thiazol-2-yl)octahydro-2H-pyrazino[1,2-a]pyrazine-2-carbonitrile]	< 0.1 µM
N#Cc1cccc(-c2cnc(N3CCN4CCN(C#N)C[C@@H]4C3=O)nc2)c1 (single isomer, unassigned) [Compound 1-4R]	1 to 10 µM
N#CN1CCN2CCN(c3ncc(N4CCCC[C@@H]4Cc4ccccc4)s3)C(=O)[C@H]2C1 (single isomer, unassigned) [1-118R,R]	0.1 to 1 µM
N#CN1CCN2CCN(c3ncc(-c4ccccc4)s3)C(=O)[C@H]2C1 (single isomer, unassigned) [Compound 1-14R]	< 0.1 µM
N#CN1CC(=O)N2CCN(c3ncc(C4CCCCC4)s3)C[C@@H]2C1 (single isomer, unassigned) [Compound 3-1S]	0.1 to 1 µM
N#CN1CCN2CCN(c3nc(Cl)c(C4CCCCC4)s3)C(=O)[C@@H]2C1 (single isomer, unassigned) [Compound 1-3S]	< 0.1 µM
N#Cc1cccc(-c2cnc(N3CCN4CCN(C#N)C[C@H]4C3=O)s2)c1 (single isomer, unassigned) [Compound 1-6S]	< 0.1 µM
N#CN1CC[C@H]2CN(c3ncc(C4CCCCC4)s3)C(=O)[C@H]2C1 (single isomer, unassigned) [5-1R,R]	10 to 25 µM
N#CN1CCN2CCN(c3ncc(N4CCCC[C@H]4Cc4ccccc4)s3)C(=O)[C@H]2C1 (single isomer, unassigned) [1-118R,S]	< 0.1 µM
N#CN1CCN2CCN(c3cc(-c4cccc(Cl)c4)on3)C(=O)[C@@H]2C1 (single isomer, unassigned) [Compound 1-11S]	> 25 µM
N#CN1CCN2CCN(c3cc(-c4ccccc4Oc4ccccc4)[nH]n3)C(=O)[C@@H]2C1 (single isomer, unassigned) [Compound 1-114S]	0.1 to 1 µM
N#CN1CCN2CCN(c3ncc(N4CCCC[C@H]4Cc4ccccc4)s3)C(=O)[C@@H]2C1 (single isomer, unassigned) [1-118S,S]	0.1 to 1 µM
N#CN1CCN2CCN(c3ncc(C4CCCCC4)s3)C(=O)[C@H]2C1 (single isomer, unassigned) [Compound 1-1R]	< 0.1 µM
N#CN1CCN2CCN(c3ncc(-c4cccc(CN5CCC5)c4)s3)C(=O)[C@@H]2C1 (single isomer, unassigned) [Compound 1-115S]	1 to 10 µM
N#CN1CCN2CCN(c3ncc(-c4cccc(Cl)c4)s3)C(=O)[C@H]2C1 (single isomer, unassigned) [Compound 1-7R]	< 0.1 µM
